Tests used:
[1] = collision cross section (TIMS, N2 drift gas) of the primary ion; higher = larger gas-phase ion size
[2] = reversed-phase LC retention time (C18, 15 min MeOH gradient); higher = more hydrophobic / later elution
[3] = ionization mode: ESI+, ion species: [M+H]+
[4] = ionization mode: ESI-, ion species: [M-H]-
[5] = ionization mode: ESI+, ion species: [M]+

Row | collision cross section [1, 3] [Å²] | reversed-phase LC retention time [2, 3] [min] | collision cross section [1, 4] [Å²] | reversed-phase LC retention time [2, 4] [min] | Compound | collision cross section [1, 5] [Å²] | reversed-phase LC retention time [2, 5] [min]
1 | 142.07 | 7.73 | – | – | CCC(C(N)=O)(C(N)=O)c1ccccc1 [Phenylethylmalonamide] | – | –
2 | 162.42 | 11.9 | – | – | O=C1NC(=O)C(c2ccccc2)(c2ccccc2)N1 [Phenytoin] | – | –
3 | 163.11 | 11.9 | 163.45 | 10.6 | O=C(CCc1ccc(O)cc1)c1c(O)cc(O)cc1O [Phloretin] | – | –
4 | 189.81 | 16.8 | 186.89 | 17.2 | O=C(Nc1ccc(F)cc1)c1cccc(Oc2cccc(C(F)(F)F)c2)n1 [Picolinafen] | – | –
5 | 159 | 7.36 | – | – | CC(C)NCC(O)COc1cccc2[nH]ccc12 (configuration not stated) [Pindolol] | – | –
6 | 179.07 | 11.1 | 176.43 | 13.3 | CCc1ccc(CCOc2ccc(CC3SC(=O)NC3=O)cc2)nc1 (configuration not stated) [Pioglitazone] | – | –
7 | 194.74 | 9.13 | – | – | NC(=O)C1(N2CCCCC2)CCN(CCCC(=O)c2ccc(F)cc2)CC1 [Pipamperone] | – | –
8 | 177.09 | 14.6 | – | – | O=C(/C=C/C=C/c1ccc2c(c1)OCO2)N1CCCCC1 [Piperine] | – | –
9 | – | – | 203.46 | 12.1 | CCC(C)C(=O)OC1CC(O)C=C2C=CC(C)C(CCC(O)CC(O)CC(=O)O)C21 (configuration not stated) [Pravastatin] | – | –
10 | – | – | 182.17 | 11.9 | C[C@]12C=CC(=O)C=C1CC[C@@H]1[C@@H]2[C@@H](O)C[C@@]2(C)[C@H]1CC[C@]2(O)C(=O)CO [Prednisolone] | – | –
11 | 185.97 | 11.9 | 184 | 15.2 | C[C@]12C=CC(=O)C=C1CC[C@@H]1[C@@H]2C(=O)C[C@@]2(C)[C@H]1CC[C@]2(O)C(=O)CO [Prednisone] | – | –
12 | 148.13 | 9.29 | – | – | CCC1(c2ccccc2)C(=O)NCNC1=O [Primidone] | – | –
13 | 164.06 | 12.3 | – | – | CC(CN1c2ccccc2Sc2ccccc21)N(C)C (configuration not stated) [Promethazin] | – | –
14 | 142.68 | 6.24 | – | – | CCCOC(=O)NCCCN(C)C [Propamocarb] | – | –
15 | 162.88 | 11.3 | – | – | CC(C)NCC(O)COc1cccc2ccccc12 (configuration not stated) [Propanolol] | – | –
16 | – | – | 140.81 | 12.9 | CCCOC(=O)c1ccc(O)cc1 [Propylparaben] | – | –
17 | 153.65 | 12.3 | – | – | Cc1c(C(C)C)c(=O)n(-c2ccccc2)n1C [Propyphenazone] | – | –

Row | collision cross section [1, 3] [Å²] | reversed-phase LC retention time [2, 3] [min] | collision cross section [1, 4] [Å²] | reversed-phase LC retention time [2, 4] [min] | Compound | collision cross section [1, 5] [Å²] | reversed-phase LC retention time [2, 5] [min]
18 | 124.14 | 7.48 | – | – | [O-][n+]1cccc2ccccc21 [Quinoline N-oxide] | – | –
19 | 118.24 | 9.66 | – | – | c1ccc2ncccc2c1 [Quinoline] | – | –
20 | 216.23 | 11.3 | 213.83 | 15.4 | O=C(c1ccc(OCCN2CCCCC2)cc1)c1c(-c2ccc(O)cc2)sc2cc(O)ccc12 [Raloxifene] | – | –
21 | 168.6 | 6.09 | 181.06 | 10.1 | CN/C(=C\[N+](=O)[O-])NCCSCc1ccc(CN(C)C)o1 [Ranitidine] | – | –
22 | 192.28 | 16 | 191.62 | 16.4 | CCC(=O)[C@@]1(C)[C@H](C)C[C@H]2[C@@H]3CCC4=CC(=O)C=C[C@]4(C)[C@H]3[C@@H](O)C[C@@]21C [Rimexolone] | – | –
23 | 205.9 | 10.4 | – | – | Cc1nc2n(c(=O)c1CCN1CCC(c3noc4cc(F)ccc34)CC1)CCCC2 [Risperidone] | – | –
24 | 163.51 | 7.95 | – | – | CCCN(CCC)CCc1cccc2c1CC(=O)N2 [Ropinirole] | – | –
25 | 277.32 | 14.1 | – | – | CC[C@H]1OC(=O)[C@H](C)[C@@H](O[C@H]2C[C@@](C)(OC)[C@@H](O)[C@H](C)O2)[C@H](C)[C@@H](O[C@@H]2O[C@H](C)C[C@H](N(C)C)[C@H]2O)[C@](C)(O)C[C@@H](C)C(=NOCOCCOC)[C@H](C)[C@@H](O)[C@]1(C)O [Roxithromycin] | – | –
26 | 233.31 | 9.72 | 232.48 | 8.1 | CC1OC(OCC2OC(Oc3c(-c4ccc(O)c(O)c4)oc4cc(O)cc(O)c4c3=O)C(O)C(O)C2O)C(O)C(O)C1O (configuration not stated) [Rutin] | – | –
27 | – | – | 128.86 | 4.8 | O=C1NS(=O)(=O)c2ccccc21 [Saccharin] | – | –
28 | – | – | – | – | CCCC[N+]1(C)[C@H]2CC(OC(=O)C(CO)c3ccccc3)C[C@H]1[C@H]1O[C@H]12 (some centres not stated) [Scopolamine-N-butyl] | 188.31 | 9.85
29 | – | – | 133.5 | 7.44 | COc1cc2ccc(=O)oc2cc1O [Scopoletin] | – | –
30 | 176.16 | 17 | 142.73 | 3.2 | O=C(O)CCCCCCCCC(=O)O [Sebacic acid] | – | –
31 | 168.55 | 13.8 | – | – | CN[C@H]1CC[C@@H](c2ccc(Cl)c(Cl)c2)c2ccccc21 [Sertraline] | – | –
32 | 140.79 | 7.22 | 140.22 | 8.55 | CCNc1nc(NCC)[nH]c(=O)n1 [Simazine 2-Hydroxy] | – | –
33 | 192.92 | 9.57 | 182.72 | 12.1 | NC(CC(=O)N1CCn2c(nnc2C(F)(F)F)C1)Cc1cc(F)c(F)cc1F (configuration not stated) [Sitagliptin] | – | –
34 | 166.72 | 5.7 | 170.22 | 7.58 | CC(C)NCC(O)c1ccc(NS(C)(=O)=O)cc1 (configuration not stated) [Sotalol] | – | –

Row | Compound | collision cross section [1, 3] [Å²] | reversed-phase LC retention time [2, 3] [min] | collision cross section [1, 4] [Å²] | reversed-phase LC retention time [2, 4] [min] | collision cross section [1, 5] [Å²] | reversed-phase LC retention time [2, 5] [min]
35 | CO/C=C(/C(=O)OC)c1ccccc1COc1cccc(C(F)(F)F)n1 [Picoxystrobin] | 174.95 | 15.2 | – | – | – | –
36 | Cc1nc(N(C)C)nc(OC(=O)N(C)C)c1C [Pirimicarb] | 156.34 | 10.5 | – | – | – | –
37 | CCN(CC)c1nc(C)cc(OP(=S)(OC)OC)n1 [Pirimiphos-methyl] | 167.52 | 15.7 | – | – | – | –
38 | CCCN(CCOc1c(Cl)cc(Cl)cc1Cl)C(=O)n1ccnc1 [Prochloraz] | 183.61 | 15.7 | – | – | – | –
39 | CC12CC1(C)C(=O)N(c1cc(Cl)cc(Cl)c1)C2=O (configuration not stated) [Procymidone] | – | – | 172.16 | 15 | – | –
40 | CCCSP(=O)(OCC)Oc1ccc(Br)cc1Cl (configuration not stated) [Profenofos] | 169.17 | 16.6 | – | – | – | –
41 | CC(C)N(C(=O)CCl)c1ccccc1 [Propachlor] | 143.81 | 13 | – | – | – | –
42 | CCC(=O)Nc1ccc(Cl)c(Cl)c1 [Propanil] | 146.71 | 13.8 | 141.22 | 14.1 | – | –
43 | C#CCOS(=O)OC1CCCCC1Oc1ccc(C(C)(C)C)cc1 (configuration not stated) [Propargite] | 195.16 | 17.4 | – | – | – | –
44 | CCCC1COC(Cn2cncn2)(c2ccc(Cl)cc2Cl)O1 (configuration not stated) [Propiconazole] | 179.72 | 15.7 | – | – | – | –
45 | CCCOc1nn(C(=O)NS(=O)(=O)c2ccccc2C(=O)OC)c(=O)n1C [Propoxycarbazone] | 199.32 | 11.7 | 193.45 | 9.86 | – | –
46 | C#CC(C)(C)NC(=O)c1cc(Cl)cc(Cl)c1 [Propyzamide] | 158.35 | 14.2 | – | – | – | –
47 | CCCN(CCC)C(=O)SCc1ccccc1 [Prosulfocarb] | 158.12 | 16.4 | – | – | – | –
48 | COc1nc(C)nc(NC(=O)NS(=O)(=O)c2ccccc2CCC(F)(F)F)n1 [Prosulfuron] | 188.2 | 13.9 | 189.48 | 11.9 | – | –
49 | OC(Cc1ccccc1Cl)(Cn1cncn1)C1(Cl)CC1 (configuration not stated) [Prothioconazole-desthio] | 168.06 | 14.9 | – | – | – | –
50 | CC1=NNC(=O)N(/N=C/c2cccnc2)C1 [Pymetrozine] | 153.68 | 5.8 | – | – | – | –
51 | COC(=O)N(OC)c1ccccc1COc1ccn(-c2ccc(Cl)cc2)n1 [Pyraclostrobin] | 184.99 | 15.8 | – | – | – | –
52 | CCOC(=O)c1cn2nc(OP(=S)(OCC)OCC)cc2nc1C [Pyrazophos] | 187.33 | 15.8 | – | – | – | –
53 | CC(C)(C)c1ccc(CSc2cnn(C(C)(C)C)c(=O)c2Cl)cc1 [Pyridaben] | 193.46 | 17.9 | – | – | – | –
54 | CC(COc1ccc(Oc2ccccc2)cc1)Oc1ccccn1 (configuration not stated) [Pyriproxyfen] | 184.89 | 16.9 | – | – | – | –
55 | Cc1cnc2c(C(=O)O)c(Cl)ccc2c1 [Quinmerac] | 139.87 | 9.27 | – | – | – | –
56 | Fc1ccc(Oc2ccnc3cc(Cl)cc(Cl)c23)cc1 [Quinoxyfen] | 164.99 | 17.1 | – | – | – | –
57 | CC(Oc1ccc(Oc2cnc3cc(Cl)ccc3n2)cc1)C(=O)O (configuration not stated) [Quizalofop] | – | – | 192.68 | 13.5 | – | –
58 | CC[C@@H](C(=O)[C@@H](C)[C@@H](O)[C@H](C)[C@@H]1O[C@@H]([C@@H](CC)C(=O)O)CC[C@@H]1C)[C@H]1O[C@]2(C=C[C@@H](O)[C@]3(CC[C@@](C)([C@H]4CC[C@](O)(CC)[C@H](C)O4)O3)O2)[C@H](C)C[C@@H]1C [Salinomycin] | – | – | 263.17 | 18.5 | – | –
59 | C=CCC1(C(C)CCC)C(=O)NC(=O)NC1=O (configuration not stated) [Secobarbital] | – | – | 153.23 | 12.7 | – | –
60 | CCNc1nc(Cl)nc(NCC)n1 [Simazine] | 142.98 | 11.5 | – | – | – | –
61 | CCNc1nc(NCC)nc(SC)n1 [Simetryn] | 149.02 | 11.6 | – | – | – | –

— the supplement of paper PMC12613149
